Assay results taken from a melting point compilation (Tetko et al.; mined from patent text by program, amines drawn as free bases though some values may be those of a salt).

In the case of `Cn1cc(C2=C(c3cn(CCCS(C)(=O)=O)c4ccccc34)C(=O)NC2=O)c2ccccc21`, the melting point was 225 to 227 °C.
`CCSCCc1c(-c2ccccc2)nc(N)n2ncnc12` showed a melting point of 120 to 122 °C.
Work on `Cn1c(=O)c(-c2ccc(Cl)cc2Cl)cc2c3cc(-c4nc(NC(=O)C5CC5)no4)ccc3n(C)c21` yielded a melting point of 292 to 295 °C.
In the case of `CCOC(=O)N(CC(=O)O)C(=O)c1c(Br)ccc2c(C(F)(F)F)c(OC)ccc12`, the melting point was 167 to 168 °C.
`CN1C(=O)C(C(C)(C)C)NNC1=S` (stereo not drawn) gave a melting point of 214 °C.
With `COc1cc2c(O)nc(O)nc2c(OC)c1OC` the melting point was over 255 °C.
`CC1(C)CC(=O)c2c(O)cc(O)cc2C1` showed a melting point of 115 to 116 °C.
In the case of `CCOC(=O)c1c(-c2cccc(Cl)c2)c2cc(C(c3nc(-c4ccccc4)cs3)n3ccnc3-c3ccccc3)ccc2[nH]c1=O` (stereo not drawn), the melting point was 149 °C.
`CCCCc1c(C)c2ccc(OCCCCl)cc2[nH]c1=O` showed a melting point of 203 °C.
Work on `CC(C)NC(=O)C1c2cc(NC(=O)c3cc(C(F)(F)F)nn3-c3ncccc3Cl)c(Cl)cc2CC1F` (stereo not drawn) yielded a melting point of 98 to 99 °C.
`CCOC(=O)c1ccc(CCN2CCN(CCCS(=O)(=O)O)CC2)cc1` showed a melting point of 235 to 236 °C.
For `Cn1cnc2c(=S)[nH]ccc21`, the melting point was over 300 °C.
With `COC(=O)C1=NNC(C)=C(C(=O)OC)C1c1ccccc1[N+](=O)[O-]` (stereo not drawn) the melting point was 203 to 205 °C.
For `N#CN1CCC(c2nn(-c3ccc(C(F)(F)F)cc3)c3ccccc23)CC1`, the melting point was 135 to 136 °C.
`CC1(C)CC(=O)c2c(nc(Cc3ccc(N)cc3)c3[nH]c4ccccc4c23)C1` showed a melting point of 123 to 124 °C.
With `Cc1ccc(N2Cc3ccccc3P2(=O)c2ccccc2)cc1` (stereo not drawn) the melting point was 197 to 199 °C.
For `CCCCCC(CCn1ccnc1)SCc1ccc(Cl)cc1Cl` (stereo not drawn), the melting point was 124 to 126 °C.
`ClCn1nnc2ccccc21` showed a melting point of 136 °C.
For `COc1cc2c(-c3ccnc(NN)c3)c(CO)c(CO)cc2cc1OC(C)C`, the melting point was 128 to 131 °C.
`COc1cc(OCC2CC2)c(/C=C/C(=O)c2ccc(C(=O)O)cc2)cc1-c1cccs1` gave a melting point of 187 to 191 °C.
In the case of `CC(C)(C)OC(=O)N1C(=O)C(C2=COc3ccccc3O2)=C(c2cn(C(=O)OC(C)(C)C)c3ccc(OCc4ccccc4)cc23)C1=O`, the melting point was 76 °C.
Work on `N#Cc1ccc(OCc2ccncc2)cc1OC(C(=O)O)c1ccccc1Br` (racemic) yielded a melting point of 171 to 172 °C.
In the case of `CCOc1cc(OC)ccc1C(CC(=O)Nc1cc(C(N)=O)ccc1C(C)(C)C)CC(C)C` (stereo not drawn), the melting point was 216 to 217 °C.
In the case of `CC(=O)Nc1cccc2c(-c3ccccc3)c([N+](=O)[O-])oc12`, the melting point was 224 to 226 °C.
For `N#CCc1cccc2nnsc12`, the melting point was 78 to 80 °C.
`CC(O)(C(=O)Nc1ccc(S(=O)(=O)N(c2ccccc2)c2ccccc2)cc1)C(F)(F)F` (stereo not drawn) showed a melting point of 217 to 220 °C.
In the case of `CC(=O)NC[C@H]1CN(c2ccc(N3CCC(C)(O)CC3)c(F)c2)C(=O)O1`, the melting point was 180 to 182 °C.
For `C=CCOc1ccc2c(c1)Oc1cc(O)ccc1C21OC(=O)c2ccccc21` (stereo not drawn), the melting point was 204 °C.
Work on `CN(C)C(=O)c1nnc(S)o1` yielded a melting point of 185 to 187 °C.
With `Nc1ncc(CCN2CCN(c3ccccc3)CC2)s1` the melting point was 185 to 189 °C.
With `O=C1CN=C(c2ccccc2F)c2cc(Cl)ccc2N1` the melting point was 206 to 207 °C.
For `COc1cc(F)c(C(=O)Oc2ccc(C(=O)O)cc2)cc1C12CC3CC(CC(C3)C1)C2`, the melting point was 268 to 270 °C.
`CCc1nc2cc(Cn3ccnc3)ccc2n1C` gave a melting point of 127 °C.
Compound `O=C(CCCN1CCC(c2ccccc2)CC1)c1ccc2c(c1)Cc1cc(C(=O)CCCN3CCC(c4ccccc4)CC3)ccc1-2` has a melting point of 190 to 192 °C.
For `CC(C)(C)c1cc(-n2ccc(=O)[nH]c2=O)cc(-c2ccc3cc(NS(C)(=O)=O)ccc3c2)c1Cl`, the melting point was over 280 °C.
Work on `Cn1cc(C(=O)O)c(=O)c2cc(F)c(F)cc21` yielded a melting point of 284 to 287 °C.
For `CNc1nc(Br)cc(S(=O)(=O)c2ccc(N)cc2)n1`, the melting point was over 250 °C.
`CN(C)c1ccc2c(c1)C(=O)OC2` showed a melting point of 182 to 185 °C.
Work on `O=C(c1cc2cc([N+](=O)[O-])ccc2[nH]1)N1CC(CCl)c2c1cc([N+](=O)[O-])c1ccccc21` (stereo not drawn) yielded a melting point of over 300 °C.
`COC(=O)c1cc(-c2ccc(OC)cc2)nn(CC(=O)Nc2ccc(SC)cc2)c1=O` gave a melting point of 130 to 132 °C.
`c1ccc2c(c1)CCc1nc(-c3ccncc3)oc1-2` showed a melting point of 129 to 130 °C.
In the case of `Cc1c(NCCCNCC(O)COc2ccccc2)n(C)c(=O)n(C)c1=O` (stereo not drawn), the melting point was 132 to 133 °C.
Compound `CC1(C)COC(c2ccccc2C2Oc3cccc(F)c3C(=O)C2=Cc2ccccc2)=N1` (stereo not drawn) has a melting point of 110 to 112 °C.
Compound `CC12CCC3C4CCC(=O)C=C4CCC3C1CCC2CO` (stereo not drawn) has a melting point of 115 to 118 °C.
`Clc1nc(-c2ncccn2)nc(Cl)c1-c1cccs1` showed a melting point of 159 to 160 °C.
`CN1CCN(C2CCN(c3ncc4ncnc(Nc5ccc(F)c(Cl)c5)c4n3)CC2)CC1` gave a melting point of 163 to 165 °C.
Compound `CCC1=Cc2cc3c(cc2C(c2ccc(N)cc2)=NN1C(C)=O)OCO3` has a melting point of 136 to 138 °C.
In the case of `COc1ccc(N2CCN(c3c(C)c(C)c4c(c3C)C(CN3CCCCC3)C(C)(C)O4)CC2)cc1` (stereo not drawn), the melting point was 144 to 145 °C.
